Measured values: PMC11380953, “Multivalent, calcium-independent binding of surfactant protein A and D to sulfated glycosaminoglycans of the alveolar epithelial glycocalyx” (American Journal of Physiology - Lung Cellular and …, 2024)

Key:
[1] = target: T1, recSP-A2 (human recombinant SP-A2) (Homo sapiens, UniProt Q8IWL1); experiment: Microscale thermophoresis (MST) binding to recSP-A2; conditions: for Kd: recSP-A2, GAGs from Fig. 2, read-out: Kd (±KD Confidence); for Response Amplitude: recSP-A2, MST, GAGs from Fig. 2
T1 construct: purchased Aviva Systems Biology OPCD07132; host or cells: prokaryotic expression
T1 sequence (Q8IWL1 21-248): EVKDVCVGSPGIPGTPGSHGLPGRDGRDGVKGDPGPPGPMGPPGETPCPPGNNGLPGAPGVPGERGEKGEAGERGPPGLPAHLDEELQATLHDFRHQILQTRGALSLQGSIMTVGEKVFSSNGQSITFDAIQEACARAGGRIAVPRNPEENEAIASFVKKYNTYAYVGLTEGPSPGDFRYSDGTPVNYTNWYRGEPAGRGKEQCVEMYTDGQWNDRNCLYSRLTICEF
Procedure: Human-isolated and recombinant proteins were labeled using the Monolith Protein Labeling Kit RED-NHS according to the manufacturer’s instructions. This kit reagent reacts with lysine residues present in the sequence of the protein, as the dye carries a reactive NHS-ester group. Briefly, as all the proteins were in a Tris buffer solution, the buffer solution was exchanged to a HEPES-based buffer with the A-Column provided in the kit. Then, 10 µM solution of protein was incubated with a threefold excess of dye in 100 µL for 30 min at room temperature protected from light. The labeled protein was separated from the free dye using the B-Column provided in the kit. The concentration of the labeled protein {c(M) = [A205 − (A650 × 0.19)]/[31 × MWprotein]) and the degree of labeling [DOL = A650/(195.000 M^−1cm^−1 × c(M)] were calculated according to the manufacturer’s instruction, measuring absorption at 205 nm (for the protein) and 650 nm (for the dye).
Thermophoresis is the phenomenon of movement of particles along a temperature gradient. Solvated molecules move from higher to lower temperature. This movement or depletion of molecules from the heat is quantified by the Soret coefficient ST: Chot/Ccold = exp (−STΔT). The depletion of molecules depends on the interface between molecule and solvent. Therefore, thermophoresis monitors changes in size, charge, and solvation entropy of molecules. In this regard, the thermophoresis or movement of a protein is different from a protein-ligand complex ([35]). Microscale or miniaturized thermophoresis allows to monitor molecular interaction in only a few microliters. For this method, the fluorescently labeled protein is mixed with a decreasing concentration of a ligand in 16 glass capillaries. The initial fluorescence is measured (Fcold), then an infrared (IR) laser beam is switched on and focused on the center of the first capillary, where the temperature gradient is created from the center to the walls of the capillary. At the same time, a dichroic mirror allows fluorescence from the labeled protein to be monitored (Fhot). The rate of fluorescence change is related to the amount of protein-ligand complex form, which depends on the ligand concentration, due to changes in size, charge, or hydration shell of the protein-ligand complex. The dissociation constant KD is calculated from the binding curve derived by plotting the normalized fluorescence (FNorm) at a given time after the start of the thermophoresis against the respective ligand concentration ([33], [34], [36]).
Samples were measured in a Monolith NT.115, using Premium Capillaries (MO-K025) and Monolith Protein labeling kit RED-NHS (MO-L011) all from NanoTemper Technologies (Munich, Germany). Solutions of a 3X concentrated MST buffer (15 mM Tris, 300 mM NaCl, 0.3% Tween 20, 15 mM CaCl2, pH 7.4), sugars (270 mM) or GAG (30 µM) solution, and protein solution (27 nM) were prepared separately. When a different concentration was used, a threefold concentration of the solution was prepared. Afterward, sugars and GAG solutions were diluted 1:2 with water in a series of 16 steps. For the measurement, 3 µL of each prepared component (3 µL MST buffer, 3 µL GAG solution, and 3 µL labeled protein) was mixed, centrifuged shortly to eliminate precipitates, and loaded into a glass capillary. The final concentrations of the sugars were thus between 90 –and 0.00275 mM or GAGs 10 and 0.000305 µM for GAGs, respectively. The 16 capillaries were loaded in the Monolith NT.115 and measurements were performed with a 40% LED power and medium MST power at 25°C.
Every set of 16 capillaries was prepared in 3–6 replicates (technical replicates) and measured. The replicate measures of every capillary were plotted against concentration and outliers were excluded, using the MO Affinity Analysis 3 v01 software (NanoTemper Technologies, Munich, Germany). […]

hSP-A = target: T2, hSP-A (Homo sapiens, UniProt Q8IWL1+Q8IWL2); experiment: Binding inhibition assay (hSP-A binding to coated mannan); conditions: GAGs 15 µM to 30 nM, 5 mM CaCl2 (Fig. 1G)
T2 construct: Human PAP patient, BAL isolated; from tissue; host or cells: bronchoalveolar lavage fluid of a patient with pulmonary alveolar proteinosis
T2 sequence (Q8IWL2 21-248): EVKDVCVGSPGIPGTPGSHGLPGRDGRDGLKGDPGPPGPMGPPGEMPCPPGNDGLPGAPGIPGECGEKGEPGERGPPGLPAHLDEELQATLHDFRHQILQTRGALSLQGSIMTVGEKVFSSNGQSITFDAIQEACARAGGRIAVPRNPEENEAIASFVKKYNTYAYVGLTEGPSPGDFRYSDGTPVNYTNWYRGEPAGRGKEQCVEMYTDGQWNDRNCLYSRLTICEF
T2 sequence (Q8IWL1 21-248): as the sequence (Q8IWL1 21-248) above
Procedure: Following previously described assays ([41], [42]), 96-well plates (83.3924.005, Sarstaedt AG, Nümbrecht, Germany) were coated with 70 ng/well (total volume of 100 µL/well) of mannan (M7504, Sigma-Aldrich, St. Louis) dissolved in 0.1 M NaHCO3 buffer (pH 9.6) overnight at 4°C. After removal of the coating solution, wells were blocked with 100 µL of 5 mM Tris with 2% BSA (Serva, Heidelberg, Germany) at room temperature for 2 h. Plates were washed three times with 100 µL/well washing buffer (5 mM Tris, 0.9% NaCl, 0.05% Tween-20, and 5 mM CaCl2). Next, different concentrations of HA, HS, or CS ranging from 15 µM to 30 nM and hSP-A at 14 ng/well were added to washing buffer with 0.1% BSA. The plate was incubated for 2 h at room temperature to allow the protein to bind to either mannan or GAGs. After subsequent washing, as stated before, mannan-bound hSP-A was immunodetected by incubation with a specific anti-SP-A antibody (ab190087, Abcam, Cambridge, UK) at a 0.5 µg/mL concentration for 2 h at room temperature in washing buffer. After washing the excess of antibody, a secondary antibody conjugated with HRP (horseradish peroxidase) anti-goat (Abcam, ab 6885, Cambridge, UK) was added at 2 µg/mL for 1 h at room temperature. After washing, the color reaction was developed by adding 50 µL of TMB liquid substrate (T0440, Sigma-Aldrich, St. Louis). After 30 min, the reaction was stopped by adding 50 µL of Stop Reagent (S5814, Sigma-Aldrich, St. Louis) and the plate was read at 450 nm in a plate reader (FLUOstar Omega, BMG Labtech, Ortenberg, Germany).
The data of the binding inhibition assay were analyzed in GraphPad Prism 9.5.1 using the “normalize” function and fitting to the nonlinear regression dose-response inhibition. […] The fluorescence values from the collectin-based binding assay were normalized using the same “normalize” function in GraphPad, and the statistical test used was the “non-parametric Kruskal-Wallis” test. The statistical test used for the DMMB assay for GAG quantification was also the “non-parametric Kruskal-Wallis” test.

Substance: chondroitin sulfate sodium salt [CS]
- Kd [1]: 55.2 nM
- Response Amplitude [1]: 31.90
- hSP-A binding inhibition to mannan (hSP-A): in the µM range

Substance: heparan sulfate sodium [HS]
- Kd [1]: 143 nM
- Response Amplitude [1]: 15.59
- hSP-A binding inhibition to mannan (hSP-A): in the µM range

Substance: hyaluronic acid sodium salt [HA]
- Kd [1]: 1870 nM
- Response Amplitude [1]: 19.28
- hSP-A binding inhibition to mannan (hSP-A): in the µM range
